One test concerns the target T1, N-cadherin (Gallus gallus, UniProt P10288).
T1 construct: expressed in transfected cells; host or cells: 3T3 fibroblasts
T1 sequence (P10288 165-912): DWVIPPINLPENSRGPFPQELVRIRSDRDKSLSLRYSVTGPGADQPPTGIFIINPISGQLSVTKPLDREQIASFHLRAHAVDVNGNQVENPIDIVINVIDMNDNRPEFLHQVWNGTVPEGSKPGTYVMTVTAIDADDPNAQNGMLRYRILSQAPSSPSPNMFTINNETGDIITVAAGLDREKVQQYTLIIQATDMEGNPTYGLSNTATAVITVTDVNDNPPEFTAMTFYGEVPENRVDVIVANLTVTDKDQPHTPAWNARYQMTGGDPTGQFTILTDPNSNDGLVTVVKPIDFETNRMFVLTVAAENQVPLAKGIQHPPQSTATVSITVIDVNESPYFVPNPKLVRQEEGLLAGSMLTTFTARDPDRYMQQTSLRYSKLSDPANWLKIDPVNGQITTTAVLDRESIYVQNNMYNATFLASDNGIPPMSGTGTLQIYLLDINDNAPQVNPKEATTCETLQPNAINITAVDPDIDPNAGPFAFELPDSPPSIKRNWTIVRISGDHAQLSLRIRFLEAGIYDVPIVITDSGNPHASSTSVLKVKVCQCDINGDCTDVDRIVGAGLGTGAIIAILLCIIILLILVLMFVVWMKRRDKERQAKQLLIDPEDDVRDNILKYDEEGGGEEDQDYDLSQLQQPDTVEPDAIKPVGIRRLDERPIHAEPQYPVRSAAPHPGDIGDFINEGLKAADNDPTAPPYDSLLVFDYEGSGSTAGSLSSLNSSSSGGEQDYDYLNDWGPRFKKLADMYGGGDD
As to the kind of experiment: Neurite outgrowth of mouse cerebellar neurons on 3T3 cells expressing N-cadherin (Example 2). It counts as cell-based. An excerpt:
Within a representative neurite outgrowth assay, neurons may be cultured on a monolayer of cells (e.g., 3T3) that express N-cadherin. […] For example, neurons may be cultured on monolayers of 3T3 cells transfected with cDNA encoding N-cadherin essentially as described by Doherty and Walsh, Curr. Op. Neurobiol. 4:49-55, 1994; Williams et al., Neuron 13:583-594, 1994; Hall et al., Cell Adhesion and Commun. 3:441-450, 1996; Doherty and Walsh, Mol. Cell. Neurosci. 8:99-111, 1994; and Safell et al., Neuron 18:231-242, 1997. Briefly, monolayers of control 3T3 fibroblasts and 3T3 fibroblasts that express N-cadherin may be established by overnight culture of 80,000 cells in individual wells of an 8-chamber well tissue culture slide. 3000 cerebellar neurons isolated from post-natal day 3 mouse brains may be cultured for 18 hours on the various monolayers in control media (SATO/2%FCS), or media supplemented with various concentrations of the modulating agent or control peptide. The cultures may then be fixed and stained for GAP43 which specifically binds to the neurons and their neurites. The length of the longest neurite on each GAP43 positive neuron may be measured by computer assisted morphometry.
A modulating agent that modulates N-cadherin-mediated cell adhesion may inhibit or enhance such neurite outgrowth. Under the conditions described above, the presence of 500 μg/mL of a modulating agent that disrupts neural cell adhesion should result in a decrease in the mean neurite length by at least 50%, relative to the length in the absence of modulating agent or in the presence of a negative control peptide. Alternatively, the presence of 500 μg/mL of a modulating agent that enhances neural cell adhesion should result in an increase in the mean neurite length by at least 50%.
Neurons were cultured on monolayers of 3T3 cells transfected with cDNA encoding N-cadherin essentially as described by Doherty and Walsh, Curr. Op. Neurobiol. […] The length of the longest neurite on each GAP43 positive neuron was then measured by computer assisted morphometry.

The test system of a further test is HMVEC. It counts as cell-based, human. The note with it: 3 h. As for the experimental part:
(§1) N-Ac-CHAVC-NH2 (SEQ ID NO:10) and the control peptide N-Ac-CHGVC-NH2 (SEQ ID NO:20) were evaluated for possible cytotoxic effects on human microvascular endothelial (HMVEC; Clonetics), human umbilical vein endothelial (HUVEC; ATCC #CRL-1730), IAFp2 (human fibroblast cell line; Institute Armand-Frapier, Montreal, Quebec), WI-38 (human fibroblast cell line; ATCC #CCL-75), MDA-MB231 (human breast cancer cell line; ATCC #HTB-26), and PC-3 (human prostate cancer cell line; ATCC #CRL-1435) cells utilizing the MTT assay (Plumb et al., Cancer Res. 49:4435-4440, 1989). Neither of the peptides was cytotoxic at concentrations up to and including 100 μM. Similarly, neither of the peptides was capable of inhibiting the proliferation of the above cell lines at concentrations up to 100 μM, as judged by ^3H-thymidine incorporation assays.

The test system of the next test is IAFp2. In kind it is cell-based, human. The note with it: 3 h. As for the experimental part:
as §1

A further test concerns PC-3. It counts as cell-based, human. Conditions: 3 h. On the procedure:
as §1

For the next test, the system named is WI-38. It counts as cell-based, human. The note with it: 3 h. As for the experimental part:
as §1

Here are results for 2 molecules from patent US20030224978A1, “Compounds and methods for modulating apoptosis” (McGill University, priority 1996, published 2003).

As usually defined, the IC50 is the concentration at which inhibition is half-maximal.

With `CC(=O)N[C@H]1CSSC[C@@H](C(N)=O)NC(=O)[C@H](C(C)C)NC(=O)[C@H](C)NC(=O)[C@H](Cc2c[nH]cn2)NC1=O` [N-Ac-CHAVC-NH2, N-Ac-Cys-His-Ala-Val-Cys-NH2], the “effect on neurite outgrowth on 3T3 cells expressing N-cadherin” value at N-cadherin (50 μg/mL, dose-response study) is “significantly inhibited neurite outgrowth”; on N-cadherin (500 μg/mL, 18 hours), “completely inhibited neurite outgrowth”. Moreover, the IC50 in the test with HMVEC, with IAFp2, in the test on PC-3 and with WI-38 was above 100 µM in each case.
In the case of `CC(=O)N[C@H]1CSSC[C@@H](C(N)=O)NC(=O)[C@H](C(C)C)NC(=O)CNC(=O)[C@H](Cc2c[nH]cn2)NC1=O` [N-Ac-CHGVC-NH2, reference compound], the “effect on neurite outgrowth on 3T3 cells expressing N-cadherin” value at N-cadherin (500 μg/mL, 18 hours) is “had no effect”. Further, the IC50 in the test with HMVEC, with IAFp2, in the test with PC-3 and in the test with WI-38 was above 100 µM in each case.
